In ChEMBL document CHEMBL1133024, “Antineoplastic agents. 443. Synthesis of the cancer cell growth inhibitor hydroxyphenstatin and its sodium diphosphate prodrug” (J Med Chem, 2000):
Values after ≈ are worked out from the molar mass of the structure shown.

Legend:
[1] = tested on: KM-20L2; assay: Evaluated for growth inhibition (anticancer activity) of Human colon KM20L2 cancer cell line; type: functional
[2] = tested on: P388; assay: Evaluated for growth inhibition (anticancer activity) of Murine P388 lymphocytic leukemia cell line; type: functional; settings: Mus musculus
[3] = target: Tubulin alpha chain (Sus scrofa, UniProt P02550); assay: Inhibition of tubulin polymerization; type: functional
[4] = tested on: SF-295; assay: Evaluated for growth inhibition (anticancer activity) in Human CNS cancer SF-295 cell line; type: functional
[5] = tested on: NCI-H460; assay: Evaluated for growth inhibition (anticancer activity) of Human lung-NSC cancer NCI-H460 cell line
[6] = tested on: DU-145; assay: Evaluated for growth inhibition (anticancer activity) of Human prostate cancer DU-145 cell line; type: functional
[7] = tested on: BXPC-3; assay: Evaluated for growth inhibition (anticancer activity) of human pancreas-a BXPC-3 cell line.; type: functional
[8] = target: Tubulin alpha chain (Sus scrofa) (UniProt P02550); assay: Inhibition of colchicine binding; type: functional; settings: concentration not given here
[9] = tested on: SF-295; assay: Evaluated for growth inhibition (anticancer activity) of Human CNS cancer SF-295 cell line; type: functional
[10] = tested on: RPMI-7951; assay: Evaluated for growth inhibition (anticancer activity) of Human melanoma cancer RPMI-7951 cell line; type: functional
[11] = tested on: NCI-H460; assay: Evaluated for growth inhibition (anticancer activity) of Human lung-NSC cancer NCI-H460 cell line; type: functional
[12] = tested on: Candida albicans; assay: Evaluated for antimicrobial activity against Candida albicans; type: functional
[13] = tested on: Cryptococcus neoformans; assay: Evaluated for antimicrobial activity against Cryptococcus neoformans; type: functional
[14] = tested on: Neisseria gonorrhoeae; assay: Evaluated for antimicrobial activity against Neisseria gonorrhoeae; type: functional
[15] = tested on: Micrococcus luteus; assay: Antimicrobial activity against Micrococcus luteus.; type: functional
[16] = tested on: Stenotrophomonas maltophilia; assay: Evaluated for antimicrobial activity against Stenotrophomonas maltophilia; type: functional
[17] = tested on: DU-145; assay: Evaluated for growth inhibition (anticancer activity) in Human prostate cancer DU-145 cell line; type: functional
[18] = tested on: Escherichia coli; assay: Evaluated for antimicrobial activity against Escherichia coli; type: functional
[19] = tested on: Staphylococcus aureus; assay: Evaluated for antimicrobial activity against Staphylococcus aureus; type: functional

Chain of Tubulin alpha chain (Sus scrofa) (P02550 whole entry, looked up): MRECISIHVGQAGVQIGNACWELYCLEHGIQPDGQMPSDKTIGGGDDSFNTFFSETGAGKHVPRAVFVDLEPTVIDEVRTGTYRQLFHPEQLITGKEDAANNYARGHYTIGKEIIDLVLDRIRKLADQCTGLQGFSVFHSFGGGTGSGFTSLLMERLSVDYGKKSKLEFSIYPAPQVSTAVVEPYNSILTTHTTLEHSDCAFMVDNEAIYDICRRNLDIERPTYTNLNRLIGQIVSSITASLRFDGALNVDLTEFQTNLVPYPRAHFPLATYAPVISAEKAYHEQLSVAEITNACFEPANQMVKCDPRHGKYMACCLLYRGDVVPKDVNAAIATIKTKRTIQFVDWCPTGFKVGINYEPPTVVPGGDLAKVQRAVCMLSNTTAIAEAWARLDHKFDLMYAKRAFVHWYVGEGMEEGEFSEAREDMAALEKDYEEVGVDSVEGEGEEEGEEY
Chain of Tubulin alpha chain (P02550 whole entry, looked up): as above

Structure (SMILES): COc1ccc(/C=C\c2cc(OC)c(OC)c(OC)c2)cc1OP(=O)([O-])[O-].[Na+].[Na+] [FOSBRETABULIN DISODIUM]
- GI50 [1]: 0.53 µg/mL
- GI50 [2]: 0.0004 µg/mL
- IC50 [3]: > 40000 nM
- GI50 [4]: 0.036 µg/mL
- GI50 [5]: 0.029 µg/mL

Structure (SMILES): COc1ccc(/C=C\c2cc(OC)c(OC)c(OC)c2)c(O)c1O [COMBRETASTATIN A-1]
- GI50 [1]: 0.061 µg/mL (≈ 0.184 µM)
- GI50 [6]: 0.17 µg/mL (≈ 0.512 µM)
- GI50 [2]: 0.3 µg/mL (≈ 0.903 µM)
- GI50 [7]: 4.4 µg/mL (≈ 13.2 µM)
- IC50 [3]: 1100 nM
- inhibition [8]: 99.6%
- GI50 [5]: 0.74 µg/mL (≈ 2.23 µM)

Structure (SMILES): COc1ccc(C(=O)c2cc(OC)c(OC)c(OC)c2)c(O)c1O [HYDROXYPHENSTATIN]
- GI50 [9]: 0.04 µg/mL (≈ 0.12 µM)
- GI50 [10]: 0.58 µg/mL (≈ 1.73 µM)
- GI50 [11]: 0.21 µg/mL (≈ 0.628 µM)
- GI50 [6]: 0.048 µg/mL (≈ 0.144 µM)
- GI50 [2]: 0.315 µg/mL (≈ 0.942 µM)
- GI50 [7]: 3.5 µg/mL (≈ 10.5 µM)
- IC50 [3]: 820 nM
- inhibition [8]: 77%

Structure (SMILES): COc1ccc(Br)c(C=O)c1O
- MIC [12]: 50 ug disk-1
- MIC [13]: 12.5 ug disk-1
- MIC [14]: 12.5 ug disk-1

Structure (SMILES): COc1cc(C(=O)c2ccc(OC)c(OC)c2OC)cc(OC)c1OC
- GI50 [9]: 23.1 µg/mL (≈ 63.7 µM)
- GI50 [11]: 19 µg/mL (≈ 52.4 µM)
- GI50 [6]: 32.5 µg/mL (≈ 89.7 µM)
- GI50 [2]: > 10 µg/mL
- GI50 [7]: 14.2 µg/mL (≈ 39.2 µM)

Structure (SMILES): COc1cc(C(=O)c2ccc(OC)c(OP(=O)(OCc3ccccc3)OCc3ccccc3)c2OP(=O)(OCc2ccccc2)OCc2ccccc2)cc(OC)c1OC
- GI50 [9]: > 10 µg/mL
- GI50 [1]: 5.9 µg/mL (≈ 6.9 µM)
- GI50 [10]: > 10 µg/mL
- GI50 [11]: > 10 µg/mL
- GI50 [6]: > 10 µg/mL
- MIC [15]: 50 µg/mL (≈ 58.5 µM)
- GI50 [2]: 2.55 µg/mL (≈ 2.98 µM)
- GI50 [7]: > 10 µg/mL

Structure (SMILES): COc1cccc(C=O)c1OC(C)=O
- MIC [13]: 25 ug disk-1
- MIC [16]: 50 ug disk-1

Structure (SMILES): COc1cc(C(=O)c2ccc(OC)c(OP(=O)([O-])[O-])c2OP(=O)([O-])[O-])cc(OC)c1OC.[Na+].[Na+].[Na+].[Na+]
- GI50 [9]: 0.23 µg/mL
- GI50 [1]: 33.5 µg/mL
- GI50 [11]: 0.35 µg/mL
- GI50 [6]: 0.3 µg/mL
- GI50 [2]: 0.0336 µg/mL
- GI50 [7]: 5.3 µg/mL
- IC50 [3]: > 40000 nM

Structure (SMILES): COc1cc(/C=C\c2ccc(OC)c(OP(=O)([O-])[O-])c2OP(=O)([O-])[O-])cc(OC)c1OC.[Na+].[Na+].[Na+].[Na+]
- GI50 [9]: 0.036 µg/mL
- GI50 [11]: 0.038 µg/mL
- GI50 [17]: 0.034 µg/mL
- GI50 [2]: < 0.01 µg/mL
- GI50 [7]: 1.5 µg/mL

Structure (SMILES): COc1ccc(Br)c(O)c1O
- MIC [18]: 50 ug disk-1
- MIC [14]: <6.25 ug disk-1
- MIC [19]: 25 ug disk-1
- MIC [16]: 25 ug disk-1

Structure (SMILES): COCOc1c(OC)ccc(C(=O)c2cc(OC)c(OC)c(OC)c2)c1OCOC
- GI50 [9]: > 10 µg/mL
- GI50 [10]: > 10 µg/mL
- GI50 [11]: > 10 µg/mL
- GI50 [6]: > 10 µg/mL
- GI50 [2]: > 10 µg/mL
- GI50 [7]: > 10 µg/mL
- inhibition [8]: > 10%

Structure (SMILES): COc1ccc(/C=C\c2cc(OC)c(OC)c(OC)c2)cc1O [COMBRETASTATIN A4]
- GI50 [9]: > 0.001 µg/mL
- GI50 [1]: 0.34 µg/mL (≈ 1.07 µM)
- GI50 [11]: 0.0006 µg/mL (≈ 0.0019 µM)
- GI50 [6]: 0.0008 µg/mL (≈ 0.00253 µM)
- GI50 [2]: 0.0003 µg/mL (≈ 0.000948 µM)
- GI50 [7]: 0.39 µg/mL (≈ 1.23 µM)

Structure (SMILES): COc1ccc(Br)c(C=O)c1OC(C)=O
- MIC [12]: 12.5 ug disk-1
- MIC [13]: 6.25 ug disk-1
- MIC [18]: 50 ug disk-1
- MIC [14]: 25 ug disk-1
